# Assay results taken from US11229664B2, “Treatment of myelosuppression” (priority 2012, dated 2022).
# “And” between values parts separate entries of the source, which are not always exact repeats. Equal values may be shown once.
# Legend:
# white blood cells = assay: Clinical trial, metastatic pancreatic cancer: total white blood cell count; assay type: in vivo, human; details: individual patients, ODSH adjunctive to gemcitabine and nab-paclitaxel
# Text: Male and non-pregnant, non-lactating, female patients, aged 18 to 75, with histologically confirmed metastatic adenocarcinoma of the pancreas were enrolled in the trial. […] In addition, patients were screened for blood chemistry levels, including serum creatinine levels within normal limits, serum transaminase levels of […] the upper limit of normal, and bilirubin levels of 1.5 times the upper limit of normal […].
# Treatment consisted of a series of 28-day cycles, wherein the last day of one cycle (e.g., day 28, cycle 1) was immediately followed by the first day of the next cycle (e.g., day 1, cycle 2). In each 28-day treatment cycle, patients were dosed at days 1, 8, and 15 (three weeks of medication followed by one week of rest) as follows. First, nab-paclitaxel at 125 mg/m^2 was administered as an intravenous infusion over 30 minutes. […] Nab-paclitaxel and gemcitabine therapy was given as described in the prescribing information for Abraxane® and Gemzar®. See also, Von Hoff et al., 2011, J. Clinical Oncology 29:1-7). […]
# An initial run-in period was conducted in which ten patients were treated with the gemcitabine, nab-paclitaxel, and ODSH regimen described above. After all ten patients had completed at least one 28-day cycle, the data were reviewed and an open-label randomized study initiated, with two arms (ODSH arm and Control arm). In the ODSH arm, the dosing regimen was the same as in the run-in period (gemcitabine, nab-paclitaxel, and ODSH). In the Control arm, patients were given the same gemcitabine and nab-paclitaxel regimen as in the run-in period, but without ODSH.
# Blood was drawn before treatment administration on days 1, 8, and 15 of each 28 day cycle. Platelet counts, total white blood cell counts, and absolute neutrophil counts were performed. Grading of thrombocytopenia and/or neutropenia was performed according to the following standards: […]
# anti-thrombin III = anti-thrombin III (Homo sapiens, UniProt P01008); details: cited from earlier work
# Chain of anti-thrombin III (P01008 33-464, species assumed): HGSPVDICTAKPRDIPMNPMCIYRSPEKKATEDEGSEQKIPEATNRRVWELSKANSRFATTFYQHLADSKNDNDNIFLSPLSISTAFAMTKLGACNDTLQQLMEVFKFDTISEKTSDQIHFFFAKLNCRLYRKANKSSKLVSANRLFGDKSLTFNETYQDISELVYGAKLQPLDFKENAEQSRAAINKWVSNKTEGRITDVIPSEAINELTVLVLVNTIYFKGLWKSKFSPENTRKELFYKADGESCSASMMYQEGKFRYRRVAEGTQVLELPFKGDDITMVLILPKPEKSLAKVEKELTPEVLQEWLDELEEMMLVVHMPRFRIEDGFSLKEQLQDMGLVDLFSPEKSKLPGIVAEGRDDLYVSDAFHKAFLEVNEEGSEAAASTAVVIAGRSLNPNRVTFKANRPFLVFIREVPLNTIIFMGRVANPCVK
substance,measurement,setting,value
"substantially 2-O, 3-O desulfated heparin [ODSH]",White Blood Cell Counts,white blood cells; Cycle 1 Day 1,6.8 ×10^3/μl blood and 7.7 ×10^3/μl blood and 7.3 ×10^3/μl blood and 5.0 ×10^3/μl blood and 4.6 ×10^3/μl blood and 6.5 ×10^3/μl blood and 5.7 ×10^3/μl blood and 8.7 ×10^3/μl blood and 6.0 ×10^3/μl blood and 7.2 ×10^3/μl blood
same,White Blood Cell Counts,white blood cells; Cycle 1 Day 8,4.4 ×10^3/μl blood and 6.2 ×10^3/μl blood and 2.7 ×10^3/μl blood and 5.3 ×10^3/μl blood and 2.8 ×10^3/μl blood and 5.1 ×10^3/μl blood and 2.3 ×10^3/μl blood and 5.7 ×10^3/μl blood and 3.4 ×10^3/μl blood and 4.1 ×10^3/μl blood
same,White Blood Cell Counts,white blood cells; Cycle 1 Day 15,4.2 ×10^3/μl blood and 5.1 ×10^3/μl blood and 2.1 ×10^3/μl blood and 6.0 ×10^3/μl blood and 2.0 ×10^3/μl blood and 3.2 ×10^3/μl blood and 2.7 ×10^3/μl blood (2×) and 5.4 ×10^3/μl blood and 1.5 ×10^3/μl blood
same,White Blood Cell Counts,white blood cells; Cycle 2 Day 1,4.9 ×10^3/μl blood and 7.8 ×10^3/μl blood and 17.8 ×10^3/μl blood and 5.9 ×10^3/μl blood and 6.5 ×10^3/μl blood and 5.7 ×10^3/μl blood and 11.0 ×10^3/μl blood and 3.4 ×10^3/μl blood and 10.8 ×10^3/μl blood
same,White Blood Cell Counts,white blood cells; Cycle 2 Day 8,10.2 ×10^3/μl blood and 4.5 ×10^3/μl blood and 4.6 ×10^3/μl blood and 2.9 ×10^3/μl blood and 6.4 ×10^3/μl blood
same,White Blood Cell Counts,white blood cells; Cycle 2 Day 15,3.4 ×10^3/μl blood and 4.3 ×10^3/μl blood and 5.4 ×10^3/μl blood and 2.4 ×10^3/μl blood and 4.4 ×10^3/μl blood
same,White Blood Cell Counts,white blood cells; Cycle 3 Day 1,6.0 ×10^3/μl blood and 7.6 ×10^3/μl blood and 4.8 ×10^3/μl blood and 5.8 ×10^3/μl blood
same,White Blood Cell Counts,white blood cells; Cycle 3 Day 8,4.8 ×10^3/μl blood and 2.7 ×10^3/μl blood
same,White Blood Cell Counts,white blood cells; Cycle 3 Day 15,4.3 ×10^3/μl blood
same,White Blood Cell Counts,white blood cells; Cycle 4 Day 1,8.5 ×10^3/μl blood
same,White Blood Cell Counts,white blood cells; Cycle 4 Day 8,6.0 ×10^3/μl blood
same,White Blood Cell Counts,white blood cells; Screen,8.5 ×10^3/μl blood and 6.7 ×10^3/μl blood (2×) and 6.3 ×10^3/μl blood and 6.5 ×10^3/μl blood and 10.8 ×10^3/μl blood and 10.6 ×10^3/μl blood and 6.0 ×10^3/μl blood and 7.3 ×10^3/μl blood
same,"Kd, affinity for anti-thrombin III",anti-thrombin III,~4000 µg/mL
same,Kd,"anti-thrombin III; read-out: Kd, affinity for anti-thrombin III",~339 µM
